Data as given in patent US20120030841A1, “Isoxazoline compounds for combating invertebrate pests” (BASF SE, priority 2009, published 2012).

Tests used:
Format in all cases: in vivo
[1] = tested on: Mediterranean fruitfly (Ceratitis capitata); assay: Mediterranean fruitfly egg/larval test on insect diet, microtiter plates; details: 120 h, sprayed onto insect diet, egg and larval mortality, 5 days, read-out: mortality in comparison with untreated controls
Description: (§1) The test solution was prepared the day it was used and in general at concentrations of […] (wt/vol).
For evaluating control of Mediterranean fruitfly (Ceratitis capitata) the test unit consisted of microtiter plates containing an insect diet and 50-80 C. capitata eggs.
(§2) The compounds were formulated using a solution containing 75% v/v water and 25% v/v DMSO. Different concentrations of formulated compounds were sprayed onto the insect diet at 5 μl, using a custom built micro atomizer, at two replications. After application, microtiter plates were incubated at about 28±1° C. and about 80±5% relative humidity for 5 days. Egg and larval mortality was then visually assessed.

[2] = tested on: boll weevil (Anthonomus grandis); assay: Boll weevil egg/larval test on insect diet, 24-well plates; details: 120 h, sprayed onto insect diet, egg and larval mortality, 5 days, read-out: mortality in comparison with untreated controls
Description: as §1
For evaluating control of boll weevil (Anthonomus grandis) the test unit consisted of 24-well-microtiter plates containing an insect diet and 20-30 A. grandis eggs.
The compounds were formulated using a solution containing 75% v/v water and 25% v/v DMSO. Different concentrations of formulated compounds were sprayed onto the insect diet at 20 μl, using a custom built micro atomizer, at two replications.
After application, microtiter plates were incubated at about 23±1° C. and about 50±5% relative humidity for 5 days. Egg and larval mortality was then visually assessed.

[3] = tested on: green peach aphid (Myzus persicae); assay: Green peach aphid systemic test, artificial diet under membrane, 96-well plates; details: 72 h, adult aphids on treated artificial diet, 3 days, read-out: mortality in comparison with untreated controls
Description: as §1
For evaluating control of green peach aphid (Myzus persicae) through systemic means the test unit consisted of 96-well-microtiter plates containing liquid artificial diet under an artificial membrane.
The compounds were formulated using a solution containing 75% v/v water and 25% v/v DMSO. Different concentrations of formulated compounds were pipetted into the aphid diet, using a custom built pipetter, at two replications.
After application, 5-8 adult aphids were placed on the artificial membrane inside the microtiter plate wells. The aphids were then allowed to suck on the treated aphid diet and incubated at about 23±1° C. and about 50±5% relative humidity for 3 days. Aphid mortality and fecundity was then visually assessed.

[4] = tested on: southern armyworm (Spodoptera eridania); assay: Southern armyworm foliar spray test on lima bean plants; details: 96 h, armyworm larvae, 4 days after treatment, read-out: mortality in comparison with untreated controls
Description: as §1
The active compounds were formulated in cyclohexanone as a 10,000 ppm solution supplied in tubes. The tubes were inserted into an automated electrostatic sprayer equipped with an atomizing nozzle and they served as stock solutions for which lower dilutions were made in 50% acetone:50% water (v/v). A nonionic surfactant (Kinetic®) was included in the solution at a volume of 0.01% (v/v).
Lima bean plants (variety Sieva) were grown 2 plants to a pot and selected for treatment at the 1St true leaf stage. Test solutions were sprayed onto the foliage by an automated electrostatic plant sprayer equipped with an atomizing spray nozzle. The plants were dried in the sprayer fume hood and then removed from the sprayer. Each pot was placed into perforated plastic bags with a zip closure. About 10 to 11 armyworm larvae were placed into the bag and the bags zipped closed. Test plants were maintained in a growth room at about 25° C. and about 20-40% relative humidity for 4 days, avoiding direct exposure to fluorescent light (24 hour photoperiod) to prevent trapping of heat inside the bags. Mortality and reduced feeding were assessed 4 days after treatment, compared to untreated control plants.

[5] = tested on: tobacco budworm (Heliothis virescens); assay: Tobacco budworm egg/larval test on insect diet, 96-well plates; details: 120 h, sprayed onto insect diet, egg and larval mortality, 5 days, read-out: mortality in comparison with untreated controls
Description: as §1
as §2, with “For evaluating control of tobacco budworm (Heliothis virescens) the test unit consisted of 96-well-microtiter plates containing an insect diet and 15-25 H. virescens eggs. The” for “The”, “at 10” for “at 5”

FC(F)(F)C1(c2cc(Cl)cc(Cl)c2)CC(c2ccnc3c(Br)cccc23)=NO1 (centres unmarked) [Compound 1-1, 8-bromo-4-[5-(3,5-dichloro-phenyl)-5-trifluoromethyl-4,5-di-hydroisoxazol-3-yl]-quinoline]
> 75%: mortality at 2500 ppm [1] | mortality at 2500 ppm [2] | mortality at 2500 ppm [3] | mortality at 300 ppm [4] | mortality at 2500 ppm [5]

N#Cc1cccc2c(C3=NOC(c4cc(Cl)cc(Cl)c4)(C(F)(F)F)C3)ccnc12 (centres unmarked) [Compound 1-2, 4-[5-(3,5-dichloro-phenyl)-5-trifluoromethyl-4,5-di-hydroisoxazol-3-yl]-quinoline-8-carbonitrile]
> 75%: mortality at 2500 ppm [1] | mortality at 2500 ppm [2] | mortality at 300 ppm [4] | mortality at 2500 ppm [5]

COC(=O)c1cccc2c(C3=NOC(c4cc(Cl)cc(Cl)c4)(C(F)(F)F)C3)ccnc12 (centres unmarked) [Compound 1-3, 4-[5-(3,5-dichloro-phenyl)-5-trifluoromethyl-4,5-di-hydroisoxazol-3-yl]-quinoline-8-carboxylic acid methyl ester]
> 75%: mortality at 2500 ppm [1] | mortality at 2500 ppm [2]
